In patent publication US20170340688A1, “TITRATED EXTRACTS OF CYNARA SCOLYMUS AND USES THEREOF” (priority 2014, published 2017):
Values after ≈ are worked out from the molar mass of the structure shown.

How the values were obtained:
[1] = test system: human carcinoma cells DU145; test: WST-1 cell vitality in co-treatment with chemotherapeutic agents, DU145; format: cell-based
Procedure: Cytotoxicity was assayed using the WST assay (WSTs=water soluble tetrazolium salts) which utilises the ability of mitochondrial dehydrogenases to separate the tetrazole ring from the yellow-coloured WST molecule (tetrazolium salt) to give an orange formazan salt. The amount of formazan produced following the treatment of the cells with the substances being tested is measured using spectrophotometry and is proportional to the number of living cells. WST-1 and in particular WST-8 (2-(2-methoxy-4-nitrophenyl)-3-(4-nitrophenyl)-5-(2,4-disulfophenyl)-2H-tetrazolium) are advantageous with respect to MTT because they reduce outside the cells, in combination with PMS as electron mediator, to produce water-soluble formazan.
The assays were carried out in parallel with variable doses of cynaropicrin in place of the extract, to compare the efficacy of the extract and that of cynaropicrin.

[2] = test system: STAT3; test: Glutathionylation of STAT3; format: cell-based; conditions: cynaropicrin 12 microM, 25 μM
Procedure: STAT3 was immunoprecipitated by incubating the protein cell extract overnight with an anti-STAT3 antibody. The proteins obtained were separated by means of SDS-PAGE in non-reducing conditions and were transferred on PVDF membrane. The glutathionylated STAT3 was recognised using an anti-GSH antibody.

[3] = test system: GSH; test: Intracellular analysis of GSH (colorimetric); format: cell-based; conditions: cynaropicrin 12.5, 25, 50 μM
Procedure: The intracellular concentration of GSH was evaluated by means of a colorimetric method. The cell extract, deproteinised by means of 10% trichloroacetic acid, was treated with dithio nitrobenzene (DTNB), and the quantity of TNB, which is released following the reaction with GSH, was evaluated by analysing the absorbance at 412 nm.

[4] = test system: confluent prostatic adenocarcinoma cell line DU145; test: WST-1 cell vitality assay, confluent DU145 (high levels of constitutively activated STAT3); format: cell-based, human
Procedure: FIG. 7 Assay of cell vitality in the confluent prostatic adenocarcinoma cell line DU145, treated with various concentrations of artichoke extract (50-600 μg/ml) for various treatment times (24 and 48 hours) with indications of the content in cynaropicrin of the extract. The confluency of the cells increases the levels of constitutively activated STAT3, making the cells themselves largely resistant to death. The vitality was analysed using the WST-1 assay (WST-1 test, see the experimental section for the conditions). […] The squares show the trend over 24 hours and the circles show the trend at 48 hours with extract doses from 0 to 600 μg/ml and the respective content in cynaropicrin, expressed both in μg/ml and in μM, of the extract at the various concentrations (100, 200, 300, 400, 500, 600 μg/ml).
FIG. 8. […] The vitality was analysed using the WST-1 assay (WST-1 test, see the experimental section for the conditions). […]
Cytotoxicity was assayed using the WST assay (WSTs=water soluble tetrazolium salts) which utilises the ability of mitochondrial dehydrogenases to separate the tetrazole ring from the yellow-coloured WST molecule (tetrazolium salt) to give an orange formazan salt. The amount of formazan produced following the treatment of the cells with the substances being tested is measured using spectrophotometry and is proportional to the number of living cells. […]

[5] = biological target: T1, STAT3 (Homo sapiens, UniProt P40763); test: Modulation of the STAT3 pathway in KARPAS cells (Western Blot, EMSA); format: cell-based; conditions: extract 200 μg/ml (0.181% cynaropicrin) 2-4 hours, cynaropicrin 25 μM
Procedure: (§1) The cells were lysed in ice for 30 min in lysis buffer NP40 (50 mM Tris-HCl pH 7.4, 150 mM NaCl, 1% NP-40, 1 mM EGTA, 1 mM EDTA) complemented with inhibitors of protease and phosphatase (5 mM PMSF, 3 mM NaF, 1 mM DTT, 1 mM NaVO4). Equal amounts of total extracts of protein (30 μg) were broken down by means of denaturing electrophoresis (SDS-PAGE) in 8% polyacrylamide gel and transferred for 2 hours on nitrocellulose membrane. The membranes were blocked with a 5% solution of milk dissolved in TBS-Tween_20 0.05% for 1 hour and incubated with the specific primary antibodies. The following primary antibodies were used: anti-beta actin (A-2228, SIGMA), anti-pSTAT3 (Tyr-705) (sc8059, Santa Cruz) and anti-STAT3 (sc7179, Santa Cruz). The secondary antibodies were peroxidase-conjugated (Santa Cruz), and ECL reagents (Amersham, GE Healthcare, Piscataway, N.J., USA) were used for the chemiluminescence.
(§2) 200 μg/ml of extract that contains 0.181% of cynaropricrin contain 1.2 μM of cynaropricrin.

[6] = biological target: T1, STAT3; test: Modulation of the STAT3 pathway in DU145 cells (Western Blot, EMSA); format: cell-based; parameters: The cell line DU145 expresses pStat3 in a constitutive manner; endogenous in cells; host or cells: DU145 (human prostate carcinoma, ATCC HTB-81); conditions: extract 200 μg/ml (0.181% cynaropicrin) 2-4 hours, cynaropicrin 25 μM
Procedure: as §1, §2

[7] = test system: MDA-MB231; test: Cell vitality by Trypan Blue/Countess, MDA-MB231 under normoxia; format: cell-based; conditions: Homo sapiens, MDA-MB-231, 24 hours
Procedure: Human breast cancer cell lines T47-D and MDA-MB231, human colorectal adenocarcinoma line HT-29, human prostate cancer line DU145, human uterine cervix carcinoma cell line HeLa, human hepatocarcinoma cell line HepG2 (ATCC, American Type Culture Collection) were cultivated in DMEM (BioWhittaker, Cambrex Bio Science, Belgium) in a 5% CO2 atmosphere at 37° C.
(§3) Cell vitality was assessed with a 0.4% Trypan Blue exclusion test, using an automated Countess cell counter (Life Technologies™).
(§4) The model created appears adapted for the study of plant extracts to be used in association with the classic chemotherapeutic agents. Then cells were treated with doxorubicin, with plant extracts or with their association, and cell vitality was analysed by Trypan Blue/Countess Invitrogen as described in the annexed Materials and Methods. The following treatments were performed:
MDA-MB231 cells cultivated under normoxia and under chronic hypoxia were treated for 24 hours with various concentrations of doxorubicin, elective drug in the treatment of breast cancer.

[8] = test system: ChR-MDA-MB231; test: cells; format: cell-based, human; conditions: Homo sapiens; chMDAMB231, chronic hypoxia; 24 hours; read-out: EC50 cell vitality
Procedure: (§5) To establish a chronic hypoxia model, the above cell lines were cultivated in DMEM with 10% FBS in 5% CO2 and 1% O2 atmosphere, balanced with N using a multigas incubator (Ruskinn C300, Ruskinn Technology Ltd., Bridgend, United Kingdom). Cells survived through each cell passage were selected and cultivated with reoxygenation and hypoxia cycles for at least 3 months and up to 6 months.
as §3
(§6) In order to re-create a state of chronic hypoxia, present in the interior of a solid tumour, all cell lines indicated in the table above were cultivated for some months in the Ruskin Cabinet at 37° C., under a 1% O2 atmosphere. The medium was changed every three days so as to eliminate dead cells, and approximately every 10-15 days the cells were placed in the incubator under normoxia conditions for 24 hours.
(§7) Among all cells analysed, only MDA-MB231 cell line adapted to the hypoxic environment and survived. […]
as §4, with “The following treatments were performed:” left out

[9] = in vitro; format: cell-based, human; conditions: human
Procedure: as §5, §3, §6, §7
as §4, with “The following treatments were performed:” left out

T1 sequence (P40763 whole entry): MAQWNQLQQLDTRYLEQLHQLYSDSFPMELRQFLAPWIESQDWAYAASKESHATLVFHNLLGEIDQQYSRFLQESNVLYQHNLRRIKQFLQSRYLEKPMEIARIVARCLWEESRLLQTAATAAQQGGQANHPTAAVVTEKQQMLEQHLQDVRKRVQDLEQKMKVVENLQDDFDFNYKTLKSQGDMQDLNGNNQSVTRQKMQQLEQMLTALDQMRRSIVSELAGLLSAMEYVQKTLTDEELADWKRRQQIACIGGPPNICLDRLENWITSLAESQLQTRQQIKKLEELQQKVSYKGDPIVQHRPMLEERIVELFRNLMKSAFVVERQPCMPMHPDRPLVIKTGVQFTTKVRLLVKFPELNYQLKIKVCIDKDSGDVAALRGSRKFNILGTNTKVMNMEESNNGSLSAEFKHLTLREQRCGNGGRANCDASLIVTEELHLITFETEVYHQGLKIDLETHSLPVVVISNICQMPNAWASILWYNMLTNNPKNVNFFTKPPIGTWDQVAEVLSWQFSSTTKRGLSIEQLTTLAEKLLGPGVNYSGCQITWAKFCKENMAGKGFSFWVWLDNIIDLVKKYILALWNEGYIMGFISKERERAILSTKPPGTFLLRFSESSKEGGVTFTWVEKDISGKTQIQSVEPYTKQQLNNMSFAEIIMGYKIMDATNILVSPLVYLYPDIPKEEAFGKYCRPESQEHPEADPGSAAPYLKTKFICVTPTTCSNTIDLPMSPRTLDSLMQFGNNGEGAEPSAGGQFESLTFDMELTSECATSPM

Structure (SMILES)	molarity of cynaropicrin necessary to reduce cell vitality below 20%, relative to that present in the artichoke extract ([1]; with cisplatinum 15 μg/ml)	molarity of cynaropicrin necessary to reduce cell vitality below 20%, relative to that present in the artichoke extract ([1]; with doxorubicin 2 μg/ml)	glutathionylation of STAT3 [2]	intracellular concentration of GSH [3]	cell vitality (WST-1) ([4]; 24 and 48 hours, extract 50-600 μg/ml, cynaropicrin 0-70 μM)	concentration of cynaropicrin for reduction of vitality equal to approximately 90% ([4]; 48 hours, cynaropicrin alone) [µM]	binding of STAT3 to DNA (EMSA) [5]	phosphorylation of STAT3 (Western Blot) [5]	binding of STAT3 to DNA (EMSA) [6]	phosphorylation of STAT3 (Western Blot) [6]	EC50 [7] [µg/mL]	EC50 [8] [µg/mL]	mortality at 0.25 ug/ml [9] [%]
C=C(CO)C(=O)O[C@H]1CC(=C)[C@@H]2C[C@H](O)C(=C)[C@@H]2[C@H]2OC(=O)C(=C)[C@@H]21 [cynaropicrin]	forty times greater	approximately twenty-five times greater	determines the glutathionylation of STAT3	time-dependent and dose-dependent reduction of the intracellular concentration of GSH	inhibits cell vitality in a time-dependent and dose-dependent manner	50	inhibits the binding of STAT3 to DNA	inhibits the phosphorylation of STAT3	inhibit the binding of STAT3 to DNA	inhibit the phosphorylation of STAT3	–	–	–
COc1cccc2c1C(=O)c1c(O)c3c(c(O)c1C2=O)C[C@@](O)(C(=O)CO)C[C@@H]3O[C@H]1C[C@H](N)[C@H](O)[C@H](C)O1 [doxorubicin]	–	–	–	–	–	–	–	–	–	–	0.25 (≈ 0.46 µM)	1 (≈ 1.84 µM)	20
